Results on ten molecules are retold here after patent US10981932B2, “Macrocyclic indole derivatives” (Bayer Aktiengesellschaft, priority 2016, dated 2021).

One series relates to MV-4-11. The series is described as follows: Anti-proliferative effect (CellTiter-Glo, 72 h), MV-4-11. The class given is cell-based. The note with it: MV-4-11 cells, median, read-out: IC50 antiproliferation assay MV-4-11 [M] (median). The gist of the method: (§1)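 CellTiter-Glo luminescence readout of viability, taken on a time-zero plate at day 0 and on treated plates after 72 h incubation at 37 °C in a humidified incubator. Reagent incubation 10 min before reading.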

Series [1] concerns SUDHL5. Description: Induction of caspase-3/7 activity (Caspase-Glo 3/7), SUDHL5. The class given is cell-based. Conditions: caspase-3/7 induction, SUDHL5 cells, 3 h treatment; median. The gist of the method: (§2)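 Caspase-Glo 3/7 luminescence measured after 3 h compound exposure at 37 °C in SUDHL10 and SUDHL5 cells. EC50 values come from background-corrected signals, with curve bottom set to 1 and plateau set to maximal induction by the reference compound.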

Series [2] deals with SUDHL10. Description: Induction of caspase-3/7 activity (Caspase-Glo 3/7), SUDHL10. Conditions: caspase-3/7 induction, SUDHL10 cells, 3 h treatment, median. The class given is cell-based. The gist of the method: as §2
Series [3] deals with SUDHL5. The series is described as follows: Anti-proliferative effect (CellTiter-Glo, 72 h), SUDHL5. The class given is cell-based. Conditions: SUDHL5 cells, antiproliferation, 72 h incubation, median, read-out: Antiproli SUDHL5 [M] (median). The method in brief:
as §1
(In general: ATP-based viability assays read luminescence as a measure of living cells.)

The test system of series [4] is SUDHL5. The series is described as follows: Induction of cytotoxicity (CellTiter-Glo, 5 h), SUDHL5. Conditions: read-out: Cytotox SUDHL5 [M] (median); SUDHL5 cells, cytotoxicity induction, CellTiter-Glo, 5 h incubation, median.
A further series deals with A2780. The series is described as follows: Anti-proliferative effect (CellTiter-Glo, 72 h), A2780. The class given is cell-based. The note with it: A2780 cells, median, read-out: IC50 antiproliferation assay A2780 [M] (median). The gist of the method:
as §1

The target of the next series is MCL-1 (Homo sapiens, UniProt Q07820). Description: Protein-protein interaction assay MCL-1/Noxa BH3 peptide (MCL-1 assay), TR-FRET. The class given is binding. The note with it: MBP-MCL-1 / Noxa BH3-derived peptide, median. The gist of the method: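 MBP-MCL-1 (1 nM final) was preincubated 10 min at 22 °C with compounds (11 concentrations, 0.1 nM–20 μM, duplicates) in Tris pH 7 buffer with NaCl, KF, Tween-20, DTT and BGG. After 1 h at 22 °C in the dark plus overnight at 4 °C, anti-MBP Eu-cryptate/streptavidin-XL665 TR-FRET was read; IC50 came from a 4-parameter fit.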
Chain of MCL-1 (Q07820 whole entry): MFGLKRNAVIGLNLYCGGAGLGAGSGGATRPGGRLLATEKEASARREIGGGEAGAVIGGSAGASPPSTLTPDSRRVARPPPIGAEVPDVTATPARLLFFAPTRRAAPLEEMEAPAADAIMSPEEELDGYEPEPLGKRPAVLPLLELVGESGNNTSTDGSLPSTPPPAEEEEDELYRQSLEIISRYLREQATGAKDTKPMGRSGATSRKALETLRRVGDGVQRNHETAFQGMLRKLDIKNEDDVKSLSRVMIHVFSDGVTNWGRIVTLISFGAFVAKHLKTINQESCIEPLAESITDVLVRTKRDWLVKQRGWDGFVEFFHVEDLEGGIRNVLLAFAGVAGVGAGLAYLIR
In general terms: Time-resolved FRET reads energy transfer from a long-lived donor to a nearby acceptor.

Series [5] relates to SUDHL10. Description: Induction of cytotoxicity (CellTiter-Glo, 5 h), SUDHL10.
[6] abbreviates: Homo sapiens, SU-DHL10, 5 h, read-out: Cytotox SUDHL10 [M] (median), SUDHL10 cells, cytotoxicity induction, CellTiter-Glo, 5 h incubation, median.
[7] abbreviates: read-out: Cytotox SUDHL10 [M] (median), SUDHL10 cells, cytotoxicity induction, CellTiter-Glo, 5 h incubation, median.

The structures appear in SMILES notation. Counter-ions that a name gives are not always drawn. Like-named read-outs stand apart in the source and are kept apart here.

One may read the EC50 as the concentration giving half of the maximal effect. Read a high EC50 as weaker potency. On to `Cn1nc(CC(F)(F)F)c2c1COCCCCn1c(C(=O)O)c(CCCOc3cccc4ccccc34)c3cccc-2c31` (single isomer, unassigned) [Example 220, 1-methyl-7-[3-(naphthalen-1-yloxy)propyl]-3-(2,2,2-trifluoroethyl)-1,10,11,12,13,15-hexahydropyrazo[4′,3′:9,10][1,6]oxazacycloundecino[8,7,6-hi]indole-8-carboxylic acid-N-ethylethanamine Salt], for which the IC50 with MV-4-11 (Homo sapiens, MV4-11, 72 h) is 2.27e-05 M; in the series with SUDHL5 [3] (Homo sapiens, SU-DHL-5, 72 h) it was 1.05e-05 M; with SUDHL5 [4], 9.69e-06 M; in the series on A2780 (Homo sapiens, A2780, 72 h), greater than 3.3e-05 M; against MCL-1 it was 3.23 nM; in the series with SUDHL10 [5] (setting [6]), greater than 3.3e-05 M. In addition, the EC50 in the series on SUDHL5 [1] is 10.1 µM; in the series on SUDHL10 [2] (Homo sapiens, SU-DHL10, 3 h), 22.4 µM; in the series with SUDHL10 [2], greater than 33 µM.
Regarding `Cn1nc(CC(F)(F)F)c2c1COCCCCn1c(C(=O)O)c(CCCOc3cccc4ccccc34)c3cccc-2c31` (single isomer, unassigned) [Example 221, 1-methyl-7-[3-(naphthalen-1-yloxy)propyl]-3-(2,2,2-trifluoroethyl)-1,10,11,12,13,15-hexahydropyrazolo[4′,3′:9,10][1,6]oxazacycloundecino[8,7,6-hi]indole-8-carboxylic acid-N-ethylethanamine Salt], the IC50 with MV-4-11 was greater than 3.3e-05 M; in the series on SUDHL5 [3], 9.75e-06 M; in the series on SUDHL5 [4], greater than 3.3e-05 M; in the series with A2780, 3.28e-05 M; against MCL-1, 353 nM; in the series with SUDHL10 [5] (setting [7]), greater than 3.3e-05 M. Also, the EC50 in the series with SUDHL5 [1] and in the series with SUDHL10 [2] was greater than 33 µM each time.
On to `CN1CCCCn2c(C(=O)O)c(CCCOc3cccc4ccccc34)c3cccc(c32)-c2c(CC(F)(F)F)nn(C)c2C1` (single isomer, unassigned) [Example 223, 1,14-dimethyl-7-[3-(naphthalen-1-yloxy)propyl]-3-(2,2,2-trifluoroethyl)-10,11,12,13,14,15-hexahydro-1H-pyrazolo[3′,4′:8,9][1,6]diazacycloundecino[10,11,1-hi]indole-8-carboxylic Acid], for which the IC50 was 1.79e-05 M with MV-4-11 (Homo sapiens, MV4-11, 72 h); 9.92e-06 M in the series on SUDHL5 [3] (Homo sapiens, SU-DHL-5, 72 h); 8.33e-06 M in the series on SUDHL5 [4]; greater than 3.3e-05 M with A2780; 4.24 nM on MCL-1; 2.88e-05 M in the series on SUDHL10 [5] (setting [6]). The IC50 in the series with SUDHL10 [5] (setting [7]) was greater than 3.3e-05 M. For the same molecule, the EC50 with SUDHL5 [1] was found to be 6.96 µM; in the series on SUDHL10 [2] (Homo sapiens, SU-DHL10, 3 h), 26.2 µM.
With `CN1CCCCn2c(C(=O)O)c(CCCOc3cccc4ccccc34)c3cccc(c32)-c2c(CC(F)(F)F)nn(C)c2C1` (single isomer, unassigned) [Example 224, 1,14-dimethyl-7-[3-(naphthalen-1-yloxy)propyl]-3-(2,2,2-trifluoroethyl)-10,11,12,13,14,15-hexahydro-1H-pyrazolo[3′,4′:8,9][1,6]diazacycloundecino[10,11,1-hi]indole-8-carboxylic Acid], the IC50 in the series on MV-4-11 was 1.22e-05 M; in the series with SUDHL5 [3], 6.03e-06 M; in the series with SUDHL5 [4] it was greater than 3.3e-05 M; with A2780, 1.45e-05 M; against MCL-1, 395 nM; in the series on SUDHL10 [5] (setting [7]), 3.2e-05 M. Further, the EC50 in the series on SUDHL5 [1] and in the series with SUDHL10 [2] was greater than 33 µM in each case.
As for `CN1CCCCn2c(C(=O)O)c(CCCOc3cccc4ccccc34)c3cccc(c32)-c2c(/C=C/F)nn(C)c2C1` (single isomer, unassigned) [Example 226, 3-[(E)-2-fluoroethenyl]-1,14-dimethyl-7-[3-(naphthalen-1-yloxy)propyl]-10,11,12,13,14,15-hexahydro-1H-pyrazolo[3′,4′:8,9][1,6]diazacycloundecino[10,11,1-hi]indole-8-carboxylic Acid], the IC50 in the series with MV-4-11 (Homo sapiens, MV4-11, 72 h) was 2.09e-05 M; in the series with SUDHL5 [3], 3.15e-06 M; in the series on SUDHL5 [4], 3.41e-06 M; in the series on A2780 (Homo sapiens, A2780, 72 h), greater than 3.3e-05 M; against MCL-1, 3.02 nM; with SUDHL10 [5] (setting [6]), 3.04e-05 M. For the same molecule, the EC50 in the series on SUDHL5 [1] stood at 3.15 µM; with SUDHL10 [2], 14.2 µM.
Take `CN1CCCCn2c(C(=O)O)c(CCCOc3cccc4ccccc34)c3cccc(c32)-c2c(/C=C/F)nn(C)c2C1` (single isomer, unassigned) [Example 227, 3-[(E)-2-fluoroethenyl]-1,14-dimethyl-7-[3-(naphthalen-1-yloxy)propyl]-10,11,12,13,14,15-hexahydro-1H-pyrazolo[3′,4′:8,9][1,6]diazacycloundecino[10,11,1-hi]indole-8-carboxylic Acid]: the IC50 with MV-4-11 was 1.66e-05 M; with SUDHL5 [3] it was 8.96e-06 M; in the series on SUDHL5 [4] it was greater than 3.3e-05 M; with A2780, 1.65e-05 M; against MCL-1, 90.9 nM; in the series on SUDHL10 [5] (setting [7]), greater than 3.3e-05 M. In addition, the EC50 with SUDHL5 [1] and in the series with SUDHL10 [2] was greater than 33 µM in each case.
With `Cn1nc2c(c1OC(F)F)-c1cccc3c(CCCOc4cccc5ccccc45)c(C(=O)O)n(c13)CCCCOC2` (single isomer, unassigned) [Example 235, (−)-3-(difluoromethoxy)-2-methyl-7-[3-(naphthalen-1-yloxy)propyl]-2,10,11,12,13,15-hexahydropyrazolo[4′,3′:9,10][1,6]oxazacycloundecino[8,7,6-hi]indole-8-carboxylic Acid], the IC50 is 2.07e-05 M in the series on MV-4-11 (Homo sapiens, MV4-11, 72 h); 1.22e-05 M with SUDHL5 [3] (Homo sapiens, SU-DHL-5, 72 h); greater than 3.3e-05 M in the series on SUDHL5 [4]; 1.8e-05 M with A2780 (Homo sapiens, A2780, 72 h); 77.9 nM on MCL-1; greater than 3.3e-05 M in the series on SUDHL10 [5] (setting [6]). For the same molecule, the EC50 in the series on SUDHL5 [1] was greater than 33 µM; with SUDHL10 [2] (Homo sapiens, SU-DHL10, 3 h), greater than 33 µM.
On to `Cn1nc2c(c1OC(F)F)-c1cccc3c(CCCOc4cccc5ccccc45)c(C(=O)O)n(c13)CCCCOC2` (single isomer, unassigned) [Example 236, (+)-3-(difluoromethoxy)-2-methyl-7-[3-(naphthalen-1-yloxy)propyl]-2,10,11,12,13,15-hexahydropyrazolo[4′,3′:9,10][1,6]oxazacycloundecino[8,7,6-hi]indole-8-carboxylic Acid], for which the IC50 in the series with MV-4-11 worked out at 2.19e-05 M; in the series with SUDHL5 [3], 9.48e-06 M; in the series on SUDHL5 [4], 1.06e-05 M; in the series on A2780, 2.6e-05 M; against MCL-1 it was 6.78 nM; in the series with SUDHL10 [5] (setting [7]) it was 2.52e-05 M. Besides, the EC50 with SUDHL5 [1] stood at 11.2 µM; in the series with SUDHL10 [2], 25.1 µM.
As for `O=C(O)c1c(CCCOc2cccc3ccccc23)c2cccc3c2n1CCCCOCc1nn2c(c1-3)CCCC2` (single isomer, unassigned) [Example 254, 1-[3-(naphthalen-1-yloxy)propyl]-4,5,6,7,12,13,14,15-octahydro-9H-pyrido[1″,2″:1′,5′]pyrazolo[4′,3′:9,10][1,6]oxazacycloundecino[8,7,6-hi]indole-2-carboxylic Acid], the IC50 is 8.59e-06 M with MV-4-11 (Homo sapiens, MV4-11, 72 h); 2.32e-06 M with SUDHL5 [3]; 3.21e-06 M with SUDHL5 [4]; 2.25e-05 M in the series with A2780; greater than 3.3e-05 M in the series with A2780 (Homo sapiens, A2780, 72 h); 2.14 nM at MCL-1. Also, the IC50 with SUDHL10 [5] (setting [7]) was determined as 8.11e-06 M. Also, the 50% effective concentration (EC50) in the series with SUDHL5 [1] stood at 3.01 µM; with SUDHL10 [2] it was 7.24 µM.
As to `O=C(O)c1c(CCCOc2cccc3ccccc23)c2cccc3c2n1CCCCOCc1nn2c(c1-3)CCCC2` (single isomer, unassigned) [Example 255, 1-[3-(naphthalen-1-yloxy)propyl]-4,5,6,7,12,13,14,15-octahydro-9H-pyrido[1″,2″:1′,5′]pyrazolo[4′,3′:9,10][1,6]oxazacycloundecino[8,7,6-hi]indole-2-carboxylic Acid], the IC50 with MV-4-11 is 1.31e-05 M; in the series on SUDHL5 [3] it was 1.39e-05 M; in the series on SUDHL5 [4] it was greater than 3.3e-05 M; with A2780, 2.48e-05 M; against MCL-1, 67 nM; with SUDHL10 [5] (setting [7]), 3.28e-05 M. Moreover, the 50% effective concentration (EC50) with SUDHL5 [1] and in the series on SUDHL10 [2] was greater than 33 µM throughout.
